# Source: patent US11285189B2, “Compositions and uses of locally-applied antimicrobial synthetic cationic polypeptide(s) with enhanced performance and safety” (priority 2017, dated 2022)
# Columns and labels:
# [1] = Surface tension, Du Nouy ring; format: physicochemical; conditions: samples at 0.1 mM, room temperature
# Description: Samples were prepared at 0.1 mM and assessed using TA.XT2 Texture Analyzer with a 500 g load cell, 5 cm diameter Du Nouy ring and probe speed of 0.2 mm/s at room temperature.
# Surface tension of various preparations of synthetic cationic polypeptide(s) in water. Samples were prepared at 0.1 mM and assessed using TA.XT2 Texture Analyzer with a 500 g load cell, 5 cm diameter Du Nouy ring and probe speed of 0.2 mm/s at room temperature.
# Surface tension: effect of acetic acid as an additive.
# [2] = Kinematic viscosity, glass capillary (Ubbelohde) viscometers, 37° C.; format: physicochemical; conditions: 1 and 2 wt %
# Description: FIGS. 13A-B. (a) Kinematic viscosity of various synthetic cationic polypeptide(s) in water at 1 wt % and measured using glass capillary viscometers (Ubbelohde viscometers) at a temperature of 37° C. (b) Kinematic viscosity of KrL-100/5.7 (lot BAC02) vs. bovine serum albumin; water is provided for reference.
# FIG. 14. Kinematic viscosity of synthetic cationic polypeptide(s) with a lysine-L-leucine block sequence arrangement (KL) in water at 0.5 wt % and measured using glass capillary viscometers (Ubbelohde viscometers) at a temperature of 37° C.
# FIG. 13A depicts kinematic viscosity values of various synthetic cationic polypeptide(s) in water at 1 wt % as measured using glass capillary viscometers (Ubbelohde viscometers). […] Albumin is an abundant blood protein and has a molecular weight of approximately 66.5 kDa and total chain length of approximately 583 amino acids units.
# The latter has a longer overall chain length, a similar sized hydrophobic block, but a different composition of hydrophobic amino acid units (racemic D,L-leucine vs. enantiopure L-leucine).
Compound,effect on surface tension of water [1],effect on viscosity of aqueous preparations [2]
"[H]/N=C(\N/C(=N/[H])NCCCCCCNC(=N)NC(=N)Nc1ccc(Cl)cc1)Nc1ccc(Cl)cc1 [chlorhexidine, chlorhexidine gluconate]",little or no effect,
"bovine serum albumin: abundant blood protein, approximately 66.5 kDa, approximately 583 amino acid units",,"little, if any effect on viscosity"
polyhexamethylene biguanide [PHMB],little or no effect,
